Assays:
[1] = target: bovine serum albumin (BSA) (Bos taurus, UniProt P02769); test: Emission and UV–vis titration of complex 3 with BSA; type: binding; conditions: 10 μM complex, BSA 0–50 μM, H2O/DMSO 95/5, λexc 450 nm
Protocol: The possible interaction of these Pt(II) complexes with the model protein bovine serum albumin (BSA) was studied by fluorescence and UV–vis spectroscopy. […] The effect of increasing the amount of BSA (from 0 to 50 μM) on solutions of complex 3 in mixtures of H2O/DMSO (95/5 v/v) while keeping the concentration of 3 (10 μM) constant was evaluated. Upon addition of BSA (3/BSA 1:0.25), a slight blue shift of the emission band from 510 to 495 nm is observed, and a clear switch-on of the monomer phosphorescence (^3ILCT), as a structured band slightly blue-shifted (ca. 574 nm) in relation to the complex in DMSO is observed. The intensity of this latter band reaches a maximum when the 3/BSA ratio was ca 1:1 (Figure ). […] In particular, the decrease in fluorescence emission and the switch-on of the monomer phosphorescence can be attributed to the binding of 3 to the hydrophobic pockets of the protein, which increases the rigidity of its environment and decreases the nonradiative constant.
For the BSA binding experiment, solutions of complex 3 with BSA in mixtures of DMSO/H2O (5/95 v/v) were prepared, keeping the concentration of 3 (10 μM) constant and increasing the amount of BSA (from 0 to 50 μM). […] The fluorescence intensities were then measured at λexc = 450 nm, and the emission fluorescence spectra were recorded in the wavelength range λ = 400–800 nm.

[2] = Stability in serum-free DMEM containing 5% DMSO by UV–vis; type: physicochemical; conditions: DMEM with 5% DMSO, 25 μM, 37 °C
Excerpt: The stability of complexes 1–4 was then investigated in more biologically relevant media by UV–visible spectroscopy. First, the stability of the complexes was studied in phosphate-buffered saline (PBS) containing 5% DMSO (Figure S30). […] Only a decrease in the intensity of all bands was observed, which could be attributed to partial aggregation and/or precipitation. […] The stability of complexes 1–4 was next studied in serum-free DMEM cell culture containing 5% DMSO (Figure S31). […] This final species seemed to have spectral features similar to those observed for complex 4 (Figure S31A). […] The similarity of the spectral features of the transformed species in all cases seemed to point to the formation of a common species upon incubation in DMEM, which we tentatively attribute to the decoordination of the picolinate ligands with a substituent-dependent kinetics; the COOH group favored the release of the picolinate ligand, while both NH2 and OH substituents seemed to slow down this process.
The UV–vis spectra of complexes 1–4 were recorded in PBS:DMSO (95/5) and serum-free DMEM:DMSO (95/5) at a concentration of 25 μM on a Cary 50 spectrophotometer (Varian).

MDA-MB-231 cells = test: Intracellular ROS production with H2DCFDA probe; type: cell-based, human
Protocol: Cyclometalated complexes of various metals, including Ir(III), Rh(III), Pt(II), and Au(III), have been reported to induce overproduction of reactive oxygen species (ROS), inducing oxidative stress leading to cell death. […] Following the protocol used for cytotoxicity assays, cells were incubated with 3 for 4 h in the dark at 37 °C (dark conditions) or incubated with 3 for 4 h in the dark at 37 °C, followed by 5 min of irradiation at 450 nm (irradiation conditions). ROS production was measured using the nonspecific ROS probe 2′,7′-dichlorodihydrofluorescein diacetate (H2DCFDA) (Figures and S36).
11 ROS production upon incubation of MDA-MB-231 cells for 4 h at 37 °C (dark) or for 4 h at 37 °C + 5 min irradiation at 450 nm (irradiation) with complex 3 (5, 2, 1, or 0.5 μM), expressed as the mean fluorescence intensity normalized to DMSO negative controls. […]
Triple-negative breast cancer cells MDA-MB-231 were seeded in 6-well plates at a concentration of 150 000 cells/well in 1.5 mL DMEM (Dulbecco’s modified Eagle’s medium) containing GlutaMax I supplemented with 10% FBS. […] Microscopy images were recorded in brightfield and GFP filter modes using an EVOS M5000 microscope with a 10× objective. Cell confluency was assessed on the brightfield images using EVOS M5000 microscope software, and quantification of green fluorescence was performed using Fiji software. […]

Sequence of bovine serum albumin (BSA) (P02769 25-607): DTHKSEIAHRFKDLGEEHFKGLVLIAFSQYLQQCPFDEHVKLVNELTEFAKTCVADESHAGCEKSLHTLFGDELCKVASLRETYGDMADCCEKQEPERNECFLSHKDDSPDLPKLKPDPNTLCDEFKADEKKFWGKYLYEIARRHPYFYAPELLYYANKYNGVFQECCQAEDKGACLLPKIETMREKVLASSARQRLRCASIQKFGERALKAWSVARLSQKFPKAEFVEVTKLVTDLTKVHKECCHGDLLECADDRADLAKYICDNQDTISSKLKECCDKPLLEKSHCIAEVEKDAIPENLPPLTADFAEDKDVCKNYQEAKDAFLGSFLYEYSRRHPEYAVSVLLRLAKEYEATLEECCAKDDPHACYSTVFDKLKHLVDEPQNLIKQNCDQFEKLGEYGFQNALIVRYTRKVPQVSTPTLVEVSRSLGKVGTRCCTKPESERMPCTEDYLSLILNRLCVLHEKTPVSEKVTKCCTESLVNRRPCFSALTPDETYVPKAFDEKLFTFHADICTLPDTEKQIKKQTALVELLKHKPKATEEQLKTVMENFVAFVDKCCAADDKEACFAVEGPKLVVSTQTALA

**Q.** With “[Pt(Me2N-pbt)(3-OH-pic-κN,O)] [Complex 3]” as the substance, how does the “interaction with BSA (changes of emission and UV–vis spectra)” value [1] read?
**A.** Its value is “interacts strongly with BSA”.

**Q.** What about the “stability in serum-free DMEM, UV–vis spectral changes, 24 h” value ([2]; 24 h) of the same substance?
**A.** Its value is “spectral features of both complexes changed”.

**Q.** What about the “stability in serum-free DMEM, UV–vis spectral changes, first 4 h” value ([2]; first 4 h, dark or with 5 min irradiation at 450 nm) of the same substance?
**A.** Its value is “no spectral changes”.

**Q.** And the “ROS production (H2DCFDA green fluorescence), dark” value (MDA-MB-231 cells; MDA-MB-231, 0.5, 1, 2 or 5 μM, 4 h at 37 °C in the dark)?
**A.** The value was “dose-dependent increase of green fluorescence”.

**Q.** What about the “ROS production (H2DCFDA green fluorescence), irradiation versus dark” value (MDA-MB-231 cells; MDA-MB-231, 4 h at 37 °C + 5 min irradiation at 450 nm) of the same substance?
**A.** Its value is “statistically significant increase of ROS production”.

— PMC12176268, “Structural Features and Photophysical and Antiproliferative Properties of Me2N‑pbt-Cycloplatinated Complexes with Picolinate Ligands” (Inorganic Chemistry, 2025)
